In patent US6444617B1, “Fused-heterocycle dicarboxylic acid diamide derivatives or salts thereof, herbicide and usage thereof” (Nihon Nohyaku Co., Ltd., priority 1998, dated 2002):

Experiments:
Assay type in all cases: in vivo
[1] = tested on: forxtail grass (Alopecurus aequalis var. amurensis Ohwi), Am; experiment: Test Example 3: herbicidal effect on upland weeds before emergence; details: foxtail grass, dosage 5 kg/ha
Experimental: (§1) Herbicidal Effect on Upland Weeds Before Emergence […] Then, a liquid preparation of an agent comprising a prescribed concentration of a compound of the present invention (the compounds listed in Tables 1-14) as active ingredient was sprayed. Fourteen days after the treatment, the herbicidal effect was investigated, from which weed-killing rate was calculated in the same manner as in Test Example 1, and the herbicidal effect was judged.

[2] = tested on: cocklebur (Xanthium strumarium L.), Xs; experiment: as above; details: dosage 5 kg/ha
Experimental: as §1

[3] = tested on: velvetleaf (Abutilon theophtasti L.), At; experiment: as above; details: dosage 5 kg/ha
Experimental: as §1

[4] = tested on: cleavers (Galium aparine L.), Ga; experiment: as above; details: dosage 5 kg/ha
Experimental: as §1

[5] = tested on: barnyard grass (Echinochloa crus-galli Beauv.), Ec; experiment: as above; details: dosage 5 kg/ha
Experimental: as §1

[6] = tested on: bird's eye speedwell (Veronica persica Poir.), Vp; experiment: as above; details: dosage 5 kg/ha
Experimental: as §1

wheat = experiment: Test Example 4: phytotoxicity to upland crop plants, treatment after emergence; details: dosage 5 kg/ha, sprayed after emergence, judged 14 days after treatment
Text: (§2) Herbicidal Effect on Upland Weeds After Emergence Polyethylene-made vats having a size of 10 cm (length)×20 cm (width)×5 cm (height) were filled with soil, sown with seeds of the following noxious upland weeds and with seeds of soybean plant and wheat as upland crop plants, and then covered with soil. The plants were made to grow up until they reached the leaf-stages mentioned below, after which an agent comprising a prescribed concentration of a compound of the present invention (listed in Tables 1 to 14) as active ingredient was sprayed. Fourteen days after the treatment, the herbicidal effect was investigated, from which weed-killing rate was calculated in the same manner as in Test Example 1 and the results were judged. […] Sample weeds, their leaf stages, and leaf stages of soybean plant and wheat were as follows: [table]

soybean plant = experiment: as above; details: dosage 5 kg/ha, sprayed after emergence, judged 14 days after treatment
Text: as §2

[7] = tested on: forxtail grass (Alopecurus aequalis var. amurensis Ohwi), Am; experiment: Test Example 4: herbicidal effect on upland weeds after emergence; details: dosage 5 kg/ha; sprayed after emergence; judged 14 days after treatment
Text: as §2

[8] = tested on: cocklebur (Xanthium strumarium L.), Xs; experiment: as above; details: dosage 5 kg/ha; sprayed after emergence; judged 14 days after treatment
Text: as §2

[9] = tested on: velvetleaf (Abutilon theophtasti L.), At; experiment: as above; details: dosage 5 kg/ha; sprayed after emergence; judged 14 days after treatment
Text: as §2

[10] = tested on: cleavers (Galium aparine L.), Ga; experiment: as above; details: dosage 5 kg/ha; sprayed after emergence; judged 14 days after treatment
Text: as §2

[11] = tested on: barnyard grass (Echinochloa crus-galli Beauv.), Ec; experiment: as above; details: dosage 5 kg/ha; sprayed after emergence; judged 14 days after treatment
Text: as §2

[12] = tested on: bird's eye speedwell (Veronica persica Poir.), Vp; experiment: as above; details: dosage 5 kg/ha; sprayed after emergence; judged 14 days after treatment
Text: as §2

wheat (Wh) = experiment: Test Example 3: phytotoxicity to upland crop plants, treatment before emergence; details: dosage 5 kg/ha
Experimental: (§3) Herbicidal Effect on Upland Weeds Before Emergence […] Then, a liquid preparation of an agent comprising a prescribed concentration of a compound of the present invention (the compounds listed in Tables 1-14) as active ingredient was sprayed. Fourteen days after the treatment, the herbicidal effect was investigated, from which weed-killing rate was calculated in the same manner as in Test Example 1, and the herbicidal effect was judged. At the same time, phytotoxicity to soybean plant and wheat was investigated and judged according to the criterion mentioned below.

soybean plant (So) = experiment: as above; details: dosage 5 kg/ha
Experimental: as §3

[13] = tested on: bulrush (Scirpus juncoides Roxb.); experiment: Test Example 1: herbicidal effect on paddy field weeds before emergence; details: Dosage 5 kg/ha
Experimental: (§4) Test for Herbicidal Effect on Paddy Field Weeds Before Emergence Soil was filled into 1/10000 are pots and brought into a state of paddy field, in which seeds of barnyard grass (Echinochloa crus-galli Beauv.) and bulrush (Scirpus juncoides Roxb.) were made to be before germination. The soil in the pots were treated with a solution containing a predetermined dosage of a chemical agent comprising a compound of the present invention listed in Tables 1 to 14. Twenty one days after the treatment, the herbicidal effect was investigated, the result was compared with that in untreated plot to calculate the weed-controlling rate, and the herbicidal effect was judged according to the following criterion: […]

[14] = tested on: barnyard grass (Echinochloa crus-galli Beauv.); experiment: as above; details: Dosage 5 kg/ha
Experimental: as §4

[15] = tested on: bulrush (Scirpus juncoides Roxb.); experiment: Test Example 2: herbicidal effect on paddy field weeds after emergence; details: Dosage 5 kg/ha; one-leaved stage; 21 days after treatment
Experimental: (§5) Test for Herbicidal Effect on Paddy Field Weeds After Emergence. Soil was filled into 1/10000 are pots and brought into a state of paddy field, in which seeds of barnyard grass (Echinochloa crus-galli Beauv.), bulrush (Scirpus juncoides Roxb.) and monochoria (Monochoria vaginalis Presl) were made to reach one-leaved stage. The soil in the pots were treated with a solution containing a predetermined dosage of a chemical agent comprising a compound of the present invention listed in Tables 1 to 14. Twenty one days after the treatment, the herbicidal effect was investigated and the result was compared with that in untreated plot to calculate the weed-controlling rate, and the herbicidal effect was judged according to the same criterion as in Test Example 1.

[16] = tested on: barnyard grass (Echinochloa crus-galli Beauv.); experiment: as above; details: Dosage 5 kg/ha; one-leaved stage; 21 days after treatment
Experimental: as §5

[17] = tested on: monochoria (Monochoria vaginalis Presl); experiment: as above; details: Dosage 5 kg/ha; one-leaved stage; 21 days after treatment
Experimental: as §5

In the case of `CCCNC(=O)c1nc2c(cc1C(=O)Nc1c(CC)ccc(Cl)c1CC)COCC2` [Compound No. 462, 3-(3-Chloro-2,6-diethylphenyl)-aminocarbonyl-7,8-dihydro-5H-pyrano[4,3-b]pyridine-2-carboxylic Acid n-Propylamide], the “Herbicidal effect Am” value [1] is reported as 5 (Weed-killing rate is 100%.), the “Herbicidal effect Xs” value [2] is reported as 5 (Weed-killing rate is 100%.) and the “Herbicidal effect At” value [3] is reported as 5 (Weed-killing rate is 100%.). For the same compound, the “Herbicidal effect Ga” value [4] was 5 (Weed-killing rate is 100%.), the “Herbicidal effect Ec” value [5] was 5 (Weed-killing rate is 100%.) and the “Herbicidal effect Vp” value [6] was 5 (Weed-killing rate is 100%.). The “Phytotoxicity Wh” value (wheat) was 5 (Crop-killing rate is 100%.), the “Phytotoxicity So” value (soybean plant) was 5 (Crop-killing rate is 100%.) and the “Herbicidal effect Am” value [7] was 5 (Weed-killing rate is 100%.). The “Herbicidal effect Xs” value [8] was 5 (Weed-killing rate is 100%.), the “Herbicidal effect At” value [9] was 5 (Weed-killing rate is 100%.) and the “Herbicidal effect Ga” value [10] was 5 (Weed-killing rate is 100%.). For the same compound, the “Herbicidal effect Ec” value [11] was 5 (Weed-killing rate is 100%.), the “Herbicidal effect Vp” value [12] was 5 (Weed-killing rate is 100%.) and the “Phytotoxicity Wh” value (wheat (Wh)) was 5 (Crop-killing rate is 100%.). The “Phytotoxicity So” value (soybean plant (So)) was 5 (Crop-killing rate is 100%.), the “Pre-emergence treatment Bulrush (herbicidal effect)” value [13] was 5 (Weed-killing rate is 100%.) and the “Pre-emergence treatment Barnyard grass (herbicidal effect)” value [14] was 5 (Weed-killing rate is 100%.). For the same compound, the “Post-emergence treatment Bulrush (herbicidal effect)” value [15] was 5 (Weed-killing rate is 100%.), the “Post-emergence treatment Barnyard grass (herbicidal effect)” value [16] was 5 (Weed-killing rate is 100%.) and the “Post-emergence treatment Monochoria (herbicidal effect)” value [17] was 5 (Weed-killing rate is 100%.).
With `CCCNC(=O)c1cc2c(nc1C(=O)Nc1c(CC)ccc(Cl)c1CC)[S+]([O-])CC2` (stereo not drawn) [Compound No. 1028] the “Herbicidal effect Am” value [1] was 5 (Weed-killing rate is 100%.), the “Herbicidal effect Xs” value [2] was 5 (Weed-killing rate is 100%.) and the “Herbicidal effect At” value [3] was 5 (Weed-killing rate is 100%.). For the same compound, the “Herbicidal effect Ga” value [4] was 5 (Weed-killing rate is 100%.), the “Herbicidal effect Ec” value [5] was 5 (Weed-killing rate is 100%.) and the “Herbicidal effect Vp” value [6] was 5 (Weed-killing rate is 100%.). The “Phytotoxicity Wh” value (wheat) was 5 (Crop-killing rate is 100%.), the “Phytotoxicity So” value (soybean plant) was 4 (Crop-killing rate is 90-99%.) and the “Herbicidal effect Am” value [7] was 5 (Weed-killing rate is 100%.). The “Herbicidal effect Xs” value [8] was 5 (Weed-killing rate is 100%.), the “Herbicidal effect At” value [9] was 5 (Weed-killing rate is 100%.) and the “Herbicidal effect Ga” value [10] was 4 (Weed-killing rate is 90-99%.). For the same compound, the “Herbicidal effect Ec” value [11] was 5 (Weed-killing rate is 100%.), the “Herbicidal effect Vp” value [12] was 5 (Weed-killing rate is 100%.) and the “Phytotoxicity Wh” value (wheat (Wh)) was 5 (Crop-killing rate is 100%.). For the same compound, the “Phytotoxicity So” value (soybean plant (So)) was 4 (Crop-killing rate is 90-99%.), the “Pre-emergence treatment Bulrush (herbicidal effect)” value [13] was 5 (Weed-killing rate is 100%.) and the “Pre-emergence treatment Barnyard grass (herbicidal effect)” value [14] was 5 (Weed-killing rate is 100%.). For the same compound, the “Post-emergence treatment Bulrush (herbicidal effect)” value [15] was 5 (Weed-killing rate is 100%.), the “Post-emergence treatment Barnyard grass (herbicidal effect)” value [16] was 5 (Weed-killing rate is 100%.) and the “Post-emergence treatment Monochoria (herbicidal effect)” value [17] was 5 (Weed-killing rate is 100%.).
